The results in this text go back to patent publication US20230081426A1, “COMPOUNDS AND METHODS FOR KRAS MODULATION AND INDICATIONS THEREFOR” (Plexxikon Inc., priority 2020, published 2023).

For test [1], the target named is T1, G12D-mutant human KRAS (amino acid residues 1-188) (Homo sapiens, UniProt P01116, G12D).
T1 construct: G12D or G12C-mutant human KRAS (amino acid residues 1-188) with FLAG tag; made in house; host or cells: E. coli
The experiment in a line: KRAS Binding Disruption Assay (AlphaScreen; biotinylated KRpep-2d analogue or RAF1-RBD), G12D. To be noted: KRAS G12D; geometric mean; read-out: KRAS GMean IC50 (uM) MUTATION: G12D. An outline of the steps: (§1)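 Displacement format with mutant KRAS, biotinylated KRpep-2d analogue or RAF1-RBD (5-20 nM each) at pH 7.5 with 5 mM MgCl2.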

The target of test [2] is T2, G12C-mutant human KRAS (amino acid residues 1-188) (Homo sapiens, UniProt P01116, G12C).
T2 construct: G12D or G12C-mutant human KRAS (amino acid residues 1-188) with FLAG tag; made in house; host or cells: E. coli
Kind of test: KRAS Binding Disruption Assay (AlphaScreen; biotinylated KRpep-2d analogue or RAF1-RBD), G12C. To be noted: geometric mean, read-out: KRAS GMean IC50 (uM) MUTATION: G12C. In short, it runs like this: as §1
A general note: Bead proximity is the source of the signal in Alpha formats.

T2 sequence (P01116 1-188 isoform P01116-2 G12C): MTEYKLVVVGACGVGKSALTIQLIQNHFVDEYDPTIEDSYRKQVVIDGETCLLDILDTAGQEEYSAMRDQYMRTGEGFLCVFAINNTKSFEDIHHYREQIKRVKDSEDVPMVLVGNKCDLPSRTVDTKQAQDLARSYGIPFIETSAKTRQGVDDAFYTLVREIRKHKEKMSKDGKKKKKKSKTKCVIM
T1 sequence (P01116 1-188 isoform P01116-2 G12D): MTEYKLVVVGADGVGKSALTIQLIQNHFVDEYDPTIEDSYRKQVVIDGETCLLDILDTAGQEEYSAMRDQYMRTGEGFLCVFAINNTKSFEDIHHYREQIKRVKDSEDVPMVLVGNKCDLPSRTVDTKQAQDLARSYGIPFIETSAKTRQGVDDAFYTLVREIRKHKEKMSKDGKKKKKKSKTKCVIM

As to `CN1CCC[C@H]1COc1nc(N2C[C@H]3CC[C@@H](C2)N3)c2ccc(-c3cc(N)nc4ccccc34)c(F)c2n1` [P-0760, 4-(4-((1R,5S)-3,8-diazabicyclo[3.2.1]octan-3-yl)-8-fluoro-2-(((S)-1-methylpyrrolidin-2-yl)methoxy)quinazolin-7-yl)quinolin-2-amine], the IC50 in test [1] was in the range of 0.0001 to 10 µM; in test [2], 10 to 100 µM.
Consider `CN1CCC[C@H]1COc1nc(N2C[C@H]3CC[C@@H](C2)N3)c2ccc(-c3cc(=O)[nH]c4ccccc34)c(F)c2n1` [P-0761, 4-(4-((1R,5S)-3,8-diazabicyclo[3.2.1]octan-3-yl)-8-fluoro-2-(((S)-1-methylpyrrolidin-2-yl)methoxy)quinazolin-7-yl)quinolin-2(1H)-one], for which the IC50 in test [1] lay in the range of 0.0001 to 10 µM; in test [2], 100 to 1000 µM.
On the same counts, the results for `CN1CCC[C@H]1COc1nc(N2C[C@H]3CC[C@@H](C2)N3)c2ccc(-c3nccc4cccc(C(F)(F)F)c34)c(F)c2n1` [P-0762, 4-((1R,5S)-3,8-diazabicyclo[3.2.1]octan-3-yl)-8-fluoro-2-(((S)-1-methylpyrrolidin-2-yl)methoxy)-7-(8-(trifluoromethyl)isoquinolin-1-yl)quinazoline] are 10 to 100 µM and 10 to 100 µM.
On the same counts, the results for `Fc1ccc2[nH]cc(-c3ccc4c(N5C[C@H]6CC[C@@H](C5)N6)nc(OCC56CCCN5CCC6)nc4c3F)c2c1F` [P-0763, 4-((1R,5S)-3,8-diazabicyclo[3.2.1]octan-3-yl)-7-(4,5-difluoro-1H-indol-3-yl)-8-fluoro-2-((tetrahydro-1H-pyrrolizin-7a(5H)-yl)methoxy)quinazoline] are 0.0001 to 10 µM and 0.0001 to 10 µM.
On the same counts, the results for `Fc1c(-c2c[nH]c3cccc(F)c23)ccc2c(N3C[C@H]4CC[C@@H](C3)N4)nc(OCC34CCCN3CCC4)nc12` [P-0764, 4-((1R,5S)-3,8-diazabicyclo[3.2.1]octan-3-yl)-8-fluoro-7-(4-fluoro-1H-indol-3-yl)-2-((tetrahydro-1H-pyrrolizin-7a(5H)-yl)methoxy)quinazoline] are 0.0001 to 10 µM and 0.0001 to 10 µM.
For `Fc1ccc2[nH]cc(-c3c(Cl)cc4c(N5C[C@H]6CC[C@@H](C5)N6)nc(OCC56CCCN5CCC6)nc4c3F)c2c1F` [P-0765, 4-((1R,5S)-3,8-diazabicyclo[3.2.1]octan-3-yl)-6-chloro-7-(4,5-difluoro-1H-indol-3-yl)-8-fluoro-2-((tetrahydro-1H-pyrrolizin-7a(5H)-yl)methoxy)quinazoline], the IC50 in test [1] and in test [2] was 0.0001 to 10 µM throughout.
Turning to `O=C1CC(COc2nc(N3C[C@H]4CC[C@@H](C3)N4)c3ccc(-c4cc(O)cc5ccccc45)c(F)c3n2)CN1` (stereo partly drawn) [P-0766, 4-(((4-((1R,5S)-3,8-diazabicyclo[3.2.1]octan-3-yl)-8-fluoro-7-(3-hydroxynaphthalen-1-yl)quinazolin-2-yl)oxy)methyl)pyrrolidin-2-one], the IC50 in test [1] is 0.0001 to 10 µM; in test [2], 10 to 100 µM.
On the same counts, the results for `O=C1NCCC1COc1nc(N2C[C@H]3CC[C@@H](C2)N3)c2ccc(-c3cc(O)cc4ccccc34)c(F)c2n1` (stereo partly drawn) [P-0767, 3-(((4-((1R,5S)-3,8-diazabicyclo[3.2.1]octan-3-yl)-8-fluoro-7-(3-hydroxynaphthalen-1-yl)quinazolin-2-yl)oxy)methyl)pyrrolidin-2-one] are 0.0001 to 10 µM and 10 to 100 µM.
On the same counts, the results for `CC(C)(O)COc1nc(N2C[C@H]3CC[C@@H](C2)N3)c2ccc(-c3cc(O)cc4ccccc34)c(F)c2n1` [P-0768, 4-(4-((1R,5S)-3,8-diazabicyclo[3.2.1]octan-3-yl)-8-fluoro-2-(2-hydroxy-2-methylpropoxy)quinazolin-7-yl)naphthalen-2-ol] are 0.0001 to 10 µM and 10 to 100 µM.
Taken in the same sequence, the figures for `Oc1cc(-c2ccc3c(N4C[C@H]5CC[C@@H](C4)N5)nc(CCNc4ncccn4)nc3c2F)c2ccccc2c1` [P-0769, 4-(4-((1R,5S)-3,8-diazabicyclo[3.2.1]octan-3-yl)-8-fluoro-2-(2-(pyrimidin-2-ylamino)ethyl)quinazolin-7-yl)naphthalen-2-ol] were 0.0001 to 10 µM and 10 to 100 µM.
`CC(=O)NCCc1nc(N2C[C@H]3CC[C@@H](C2)N3)c2ccc(-c3cc(O)cc4ccccc34)c(F)c2n1` [P-0770, N-(2-(4-((1R,5S)-3,8-diazabicyclo[3.2.1]octan-3-yl)-8-fluoro-7-(3-hydroxynaphthalen-1-yl)quinazolin-2-yl)ethyl)acetamide]: the IC50 lay in the range of 0.0001 to 10 µM in test [1] and 10 to 100 µM in test [2].
Taken in the same sequence, the figures for `CS(=O)(=O)NCCc1nc(N2C[C@H]3CC[C@@H](C2)N3)c2ccc(-c3cc(O)cc4ccccc34)c(F)c2n1` [P-0771, N-(2-(4-((1R,5S)-3,8-diazabicyclo[3.2.1]octan-3-yl)-8-fluoro-7-(3-hydroxynaphthalen-1-yl)quinazolin-2-yl)ethyl)methanesulfonamide] were 0.0001 to 10 µM and 10 to 100 µM.
Regarding `COc1ccc(CNCCc2nc(N3C[C@H]4CC[C@@H](C3)N4)c3ccc(-c4cc(O)cc5ccccc45)c(F)c3n2)cc1` [P-0772, 4-(4-((1R,5S)-3,8-diazabicyclo[3.2.1]octan-3-yl)-8-fluoro-2-(2-((4-methoxybenzyl)amino)ethyl)quinazolin-7-yl)naphthalen-2-ol], the IC50 in test [1] lay within 0.0001 to 10 µM; in test [2] it was 10 to 100 µM.
On the same counts, the results for `CP(C)(=O)CC(=O)N1[C@@H]2CC[C@H]1CN(c1nc(OCC34CCCN3CCC4)nc3c(F)c(-c4cc(O)cc5ccccc45)ccc13)C2` [P-0773, 2-(dimethylphosphoryl)-1-((1R,5S)-3-(8-fluoro-7-(3-hydroxynaphthalen-1-yl)-2-((tetrahydro-1H-pyrrolizin-7a(5H)-yl)methoxy)quinazolin-4-yl)-3,8-diazabicyclo[3.2.1]octan-8-yl)ethan-1-one] are 0.0001 to 10 µM and 0.0001 to 10 µM.
On the same counts, the results for `Fc1cc2c(N3C[C@H]4CC[C@@H](C3)N4)nc(OCC34CCCN3CCC4)nc2c(F)c1-c1c[nH]c2ccc(Cl)c(Cl)c12` [P-0774, 4-((1R,5S)-3,8-diazabicyclo[3.2.1]octan-3-yl)-7-(4,5-dichloro-1H-indol-3-yl)-6,8-difluoro-2-((tetrahydro-1H-pyrrolizin-7a(5H)-yl)methoxy)quinazoline] are 0.0001 to 10 µM and 0.0001 to 10 µM.
With `Oc1cc(-c2ccc3c(N4C[C@H]5CC[C@@H](C4)N5)nc(OCC4CCCCO4)nc3c2F)c2ccccc2c1` (stereo partly drawn) [P-0775, 4-(4-((1R,5S)-3,8-diazabicyclo[3.2.1]octan-3-yl)-8-fluoro-2-((tetrahydro-2H-pyran-2-yl)methoxy)quinazolin-7-yl)naphthalen-2-ol], the IC50 in test [1] lay within 0.0001 to 10 µM; in test [2], 10 to 100 µM.
Taken in the same sequence, the figures for `Oc1cc(-c2ccc3c(N4C[C@H]5CC[C@@H](C4)N5)nc(OCC4CCCOC4)nc3c2F)c2ccccc2c1` (stereo partly drawn) [P-0776, 4-(4-((1R,5S)-3,8-diazabicyclo[3.2.1]octan-3-yl)-8-fluoro-2-((tetrahydro-2H-pyran-3-yl)methoxy)quinazolin-7-yl)naphthalen-2-ol] were 0.0001 to 10 µM and 10 to 100 µM.
As for `Cc1cc(COc2nc(N3C[C@H]4CC[C@@H](C3)N4)c3ccc(-c4cc(O)cc5ccccc45)c(F)c3n2)no1` [P-0777, 4-(4-((1R,5S)-3,8-diazabicyclo[3.2.1]octan-3-yl)-8-fluoro-2-((5-methylisoxazol-3-yl)methoxy)quinazolin-7-yl)naphthalen-2-ol], the IC50 fell in the range of 0.0001 to 10 µM in test [1] and 10 to 100 µM in test [2].
On the same counts, the results for `Oc1cc(-c2ccc3c(N4C[C@H]5CC[C@@H](C4)N5)nc(OCC4CC(F)(F)C4)nc3c2F)c2ccccc2c1` [P-0778, 4-(4-((1R,5S)-3,8-diazabicyclo[3.2.1]octan-3-yl)-2-((3,3-difluorocyclobutyl)methoxy)-8-fluoroquinazolin-7-yl)naphthalen-2-ol] are 0.0001 to 10 µM and 10 to 100 µM.
On the same counts, the results for `Oc1cc(-c2ccc3c(N4C[C@H]5CC[C@@H](C4)N5)nc(OCC4CCCCC4)nc3c2F)c2ccccc2c1` [P-0779, 4-(4-((1R,5S)-3,8-diazabicyclo[3.2.1]octan-3-yl)-2-(cyclohexylmethoxy)-8-fluoroquinazolin-7-yl)naphthalen-2-ol] are 0.0001 to 10 µM and 10 to 100 µM.
Taken in the same sequence, the figures for `CN1CCC[C@H]1COc1nc(N2C[C@H]3CC[C@@H](C2)N3)c2cc(F)c(-c3c[nH]c4ncccc34)c(F)c2n1` [P-0780, 4-((1R,5S)-3,8-diazabicyclo[3.2.1]octan-3-yl)-6,8-difluoro-2-(((S)-1-methylpyrrolidin-2-yl)methoxy)-7-(1H-pyrrolo[2,3-b]pyridin-3-yl)quinazoline] were 10 to 100 µM and 100 to 1000 µM.
Take `CN1CCC[C@H]1COc1nc(N2C[C@H]3CC[C@@H](C2)N3)c2ccc(-c3nccc4ccc(F)cc34)c(F)c2n1` [P-0781, 4-((1R,5S)-3,8-diazabicyclo[3.2.1]octan-3-yl)-8-fluoro-7-(7-fluoroisoquinolin-1-yl)-2-(((S)-1-methylpyrrolidin-2-yl)methoxy)quinazoline]: the figures for the IC50 in test [1] and in test [2] were 10 to 100 µM and 100 to 1000 µM, respectively.
As for `CN1CCC[C@H]1COc1nc(N2C[C@H]3CC[C@@H](C2)N3)c2ccc(-c3cccc4cccc(Cl)c34)c(F)c2n1` [P-0782, 4-((1R,5S)-3,8-diazabicyclo[3.2.1]octan-3-yl)-7-(8-chloronaphthalen-1-yl)-8-fluoro-2-(((S)-1-methylpyrrolidin-2-yl)methoxy)quinazoline], the IC50 in test [1] was 0.0001 to 10 µM; in test [2] it was 10 to 100 µM.

What is called IC50 is the concentration that inhibits the measured activity by half.
